Experiment: method code SF, from DOI: 10.1515/bc.2003.056, PMID: 12715901

Structure (SMILES)	logP
CCCC1(C(=O)OC(C)C)CCC=[N+]1[O-] (stereo unspecified)	0.29
CCCC1(C(=O)OC(C)(C)C)CCC=[N+]1[O-] (stereo unspecified)	0.43
CC(C)OC(=O)C1(C)CCC=[N+]1[O-] (stereo unspecified)	-0.7
CCC1(C(=O)OC(C)(C)C)CCC=[N+]1[O-] (stereo unspecified)	0.18
CCC1(C(=O)OC(C)C)CCC=[N+]1[O-] (stereo unspecified)	-0.18

Second part, the molecule after the results:

logP	Structure (SMILES)
0.42	CCCOC(=O)C1(CCC)CCC=[N+]1[O-] (stereo unspecified)
0.28	CCC(C)OC(=O)C1(CC)CCC=[N+]1[O-] (stereo unspecified)
0.46	CCCCOC(=O)C1(CC)CCC=[N+]1[O-] (stereo unspecified)
0.89	CCCCOC(=O)C1(CCC)CCC=[N+]1[O-] (stereo unspecified)
-0.6	CCOC(=O)C1(CC)CCC=[N+]1[O-] (stereo unspecified)
-0.11	CCCOC(=O)C1(CC)CCC=[N+]1[O-] (stereo unspecified)

Reference: the SangsterLogP compilation
